What was measured:
Thymidylate synthase [1] = biological target: T1, Thymidylate synthase (Lactobacillus casei, UniProt P00469); assay: In vitro inhibitory activity against Thymidylate synthase was evaluated; set-up: species or system Lacticaseibacillus casei
T1 sequence (P00469 whole entry): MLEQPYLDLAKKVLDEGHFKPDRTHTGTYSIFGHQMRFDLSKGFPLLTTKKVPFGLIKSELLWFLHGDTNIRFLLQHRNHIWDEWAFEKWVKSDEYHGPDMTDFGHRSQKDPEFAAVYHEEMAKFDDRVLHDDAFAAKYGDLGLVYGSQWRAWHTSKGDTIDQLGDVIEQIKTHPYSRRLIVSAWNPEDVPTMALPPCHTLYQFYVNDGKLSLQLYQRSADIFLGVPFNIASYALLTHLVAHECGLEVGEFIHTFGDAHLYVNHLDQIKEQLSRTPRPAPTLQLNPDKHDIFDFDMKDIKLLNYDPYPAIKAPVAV

[2] = biological target: T2, Thymidylate synthase (Lactobacillus casei) (UniProt P00469); conditions: Lacticaseibacillus casei
T2 sequence (whole entry): T1 sequence (P00469 whole entry)

[3] = biological target: T2, Thymidylate synthase (Lactobacillus casei); conditions: Lacticaseibacillus casei; remark: listed apart in the source
Description: Association constant (Kassoc) towards Thymidylate synthase binding site by electron spin resonance

Thymidylate synthase [4] = biological target: T1, Thymidylate synthase; assay: In vitro inhibitory activity against Thymidylate synthetase was evaluated; set-up: species or system Lacticaseibacillus casei
[5] = biological target: T2, Thymidylate synthase (Lactobacillus casei); assay: Association constant (Kassoc) towards Thymidylate synthetase binding site by electron spin resonance; conditions: Lacticaseibacillus casei
[6] = biological target: T2, Thymidylate synthase (Lactobacillus casei); assay: The high gain spectrum and that of thymidylate synthetase both at high and low peaks indicating its binding activity; conditions: Lacticaseibacillus casei

Row | SMILES | Ki (Thymidylate synthase [1]) [µM] | 2T11 [2] | K ass [3] [M⁻¹] | Ki (Thymidylate synthase [4]) [µM] | K ass [5] [M⁻¹] | 2T11 [6]
1 | CC1(C)CC(NC(=O)CSc2cn([C@H]3C[C@H](O)[C@@H](CO)O3)c(=O)[nH]c2=O)CC(C)(C)N1[O] | 89 | 61 | 240000 | – | – | –
2 | NC/C=C/c1cn([C@H]2C[C@H](O)[C@@H](COP(=O)(O)O)O2)c(=O)[nH]c1=O | – | – | – | 7.9 | – | –
3 | CC1(C)C=C(C(=O)NC/C=C/c2cn([C@H]3C[C@H](O)[C@@H](CO)O3)c(=O)[nH]c2=O)C(C)(C)N1[O] | – | – | – | 9.2 | 190000 | 60

From ChEMBL document CHEMBL1123310, “Spin probes as mechanistic inhibitors and active site probes of thymidylate synthetase” (J Med Chem, 1986)
